Reference: US12539284B2, “Aminoxy acid-based anti-cancer stem cell compounds and methods thereof” (Westlake University, priority 2019, dated 2026)
Where two headings read alike, the source gives them in different places.

Assays:
HEY A8 CSCs (HEY A8 SP) = test: Toxicity / cell viability (CellTiter-Glo) on HEY A8 spheres (CSCs); type: cell-based, human; details: for selectivity towards ovarian CSCs over ovarian cancer cells and normal cells: from IC50 values, FIG. 4 and Table 1
Description: Aminoxy acids were synthesized by the standard peptide coupling procedures. The CSCs are obtained by spheroids culturing under suspension condition. It is confirmed that these spheres indeed contain significant higher population of cells with CD133 antigenic phenotype, which has been reported can represent ovarian CSCs (FIG. 2). After treatment with compounds for 48 h, the cell viability of CSCs was measured by using CELLTITER-GLO® luminescent reagent. Compound sff-3-85 (“Example 2”) were used at the dose of 10 μM, all the other compounds were used at the concentration of 5 μM. All experiments were performed three times and data is presented as mean±SD.
(§1) Cell Cultures Human ovarian carcinoma cell lines HEY A8 and SKOV3 were gifts from Professor Alice Wong's group (The University of Hong Kong). Cells were grown in Dulbecco's Modified Eagle (DMEM) medium supplemented with 10% FBS and 1% penicillin/streptomycin at 37° C. in a humidified atmosphere containing […] CO2. Isolation and culture of spheres were performed in serum-free stem-cell-selective condition as described in literature Ip etl. Oncogene 2014, 5, 9133-9149. Briefly, 1-2 weeks after plating, non-adherent spherical clusters of cells could be observed and were separated from single cells by low speed centrifugation. After 8th to 10th passages, the non-adherent spherical clusters of cells appeared as distinct spheres. Using this selection condition, HEY A8 spheres (HEY A8 SP) or SKOV3 spheres (SKOV3 SP) could be enzymatically dissociated and reformed into spheres within 3 days under stem-cell-selective condition. To allow differentiation, dissociated sphere cells were plated on tissue culture plates in medium (MCDB 105:M199=1:1) supplemented with 10% FBS and 1% PS.
(§2) HEY A8 SP cells (5×10^4) were plated in triplicate in 10 mL serum-free MCDB105 medium in 100-mm Petri dish for 7 days to form spheres. Compound at the final concentration of 5 μM was added. The cells were further incubated at 37° C. for 48 h. After that cells were collected by centrifugation and the medium was removed. Then 100 μL CellTiter-Glo® Luminescent Cell Viability reagent was added into each tube, which was incubated for 10 min with shaking. After that, the reagent was transferred into 96-well plates and cell viability was measured using a microplate reader (SpectraMax 340PC 384, Molecular Devices).
as §2, with “A8 SP cells or SKOV3” for “A8”, “Then drugs” for “Compound”, “different” for “the final”, “were” for “of 5 μM was”, “μL of” for “μL”

HEY A8 cells = test: Population of CD133+ cells by flow cytometry (PE-conjugated CD133 antibody); type: cell-based, human; details: Paclitaxel 100 nM, 3 days; control 21.8%
Description: CD133 has been reported to be a marker of ovarian CSCs. After cells treated with synthetic molecule, the population of CD133^+ cells were measured. HEY A8 cells were treated with taxol (100 nM), compound sff-2-112 (“Example 1”) or sff-2-132 (“Example 4”) at the concentration of 15 μM. Medium containing 0.1% DMSO was used as a negative control.
A suspension of HEY A8 cells at the concentration of 2.5×10^4 cells/mL in DMEM medium were seeded into 60-mm cell culture dishes. Cells were incubated at 37° C. in a humidified atmosphere containing 5% CO2 for 24 h, followed by the addition of 4 mL fresh medium or medium containing Paclitaxel (100 nM), sff-2-112 (15 μM) or compound sff-2-132 (15 μM). Medium containing 0.1% DMSO was used as a negative control. After 3 days, the medium was removed and cells were washed with cold PBS twice, and then stained with PE-conjugated CD133 antibody according to the manufacture's instruction. The fluorescence was analyzed by flow cytometry.

HEY A8 CSCs [1] = test: In vivo tumor seeding ability of pretreated HEY A8 CSCs; details: CSCs pretreated 2 days in vitro, 10^6 cells injected subcutaneously in mice, 25 days
Description: In vivo tumor seeding ability of cells after treatment with compound sff-2-112 (“Example 1”) or sff-2-132 (“Example 4”) was evaluated. Taxol was used as a negative control. For this experiment, HEY A8 CSCs were pretreated with sff-2-112 (“Example 1”), sff-2-132 (“Example 4”) or Taxol for 2 days in suspension medium, respectively. Then cells were allowed to proliferate in full medium in the absence of drugs for 10 days. After that, 10^6 cells were injected into mice subcutaneously. Tumor size was measured for 25 days after injection.

HEY A8 cancer cells = test: Cell viability (CellTiter-Glo) on adherent HEY A8 cancer cells; type: cell-based, human; details: read-out: IC50 Cancer Cell HeyA8
Description: as §1
(§3) HEY A8 or SKOV3 cancer Cells were plated in triplicate in 0.1 mL full medium in 96-well plates for 24 h. After that, the medium was changed to the fresh prepared medium with various concentrations of compounds. Cells were incubated for another 48 h. Then the cell viability was measured by CellTiter-Glo® Luminescent Cell Viability reagent according to the manufacture's instruction. The luminescence at 550 nm was measured using a microplate reader (SpectraMax 340PC 384, Molecular Devices).

HEK293 = test: Toxicity against normal cell line HEK293; type: cell-based
Description: (§4) Fourteen compounds including aminoxy acid monomers and dipeptides have been identified to show toxicity against HEY A8 CSCs. The half maximal inhibitory concentration (IC50) values of compounds sff-2-112, sff-2-124, sff-2-132 and sff-2-100 towards adherent cancer HEY A8, SKOV3 cells and CSCs were further determined. […] Especially compound sff-2-132, its selectivity to CSCs is up to 60-fold higher than that to cancer cells. Their toxicity against other normal cell lines NIH3T3, HEK293 and MDCK were also tested and the IC50 values were summarized in Table 1.

MDCK = test: Toxicity against normal cell line MDCK; type: cell-based
Description: as §4

NIH3T3 = test: Toxicity against normal cell line NIH3T3; type: cell-based
Description: as §4

SKOV3 cancer cells = test: Cell viability (CellTiter-Glo) on adherent SKOV3 cancer cells; type: cell-based, human; details: 48 h incubation
Description: as §1, §3

[2] = tested on: Huh 7 cancer stem cells (CD133+); test: Cell viability (CellTiter-Glo) of sorted Huh 7 CD133+ cells; type: cell-based; details: 48 h
Description: (§5) Huh-7 cells were stained with PE-conjugated CD133 antibody (HCC cancer stem cell marker) according to the manufacturer's instructions. Then CD133^+ cells (Huh 7 cancer stem cells) and CD133− cells were sorted by flow cytometry and seeded into 96-well plate with fresh DMEM medium. After 24 h, medium was changed to fresh medium with compound sff-2-112 (“Example 1”) or sff-2-124 (“Example 3”) at different doses. After 48 h, cell viability was analyzed by CellTiter-Glo luminescent agent.

Huh 7 CD133- cells = test: Cell viability (CellTiter-Glo) of sorted Huh 7 CD133- cells; type: cell-based; details: 48 h, different doses
Description: as §5

HEY A8 CSCs [3] = test: Apoptosis, Annexin V / PI flow cytometry, CSCs; type: cell-based, human; details: 5 μM, 2 days; DMSO 4.92%
Description: A suspension of HEY A8 cells at the concentration of 5×10^4 cells/mL in DMEM medium were seeded into 60-mm cell culture dishes. Cells were incubated at 37° C. in a humidified atmosphere containing 5% CO2 for 24 h followed by the addition of 4 mL fresh medium or medium containing compound sff-2-112 (“Example 1”) or sff-2-132 (“Example 4”) at different concentration. Medium containing 0.1% DMSO was used as negative control. After 2 days, the medium was aspirated and cells were washed with cold PBS twice, and then stained with PI and Annexin V according to the manufacture's instruction (Dead Cell Apoptosis Kit with Annexin V Alexa Fluor™ 488 & Propidium Iodide, Thermo Fisher). Cells were analyzed by flow cytometry (BD FACS CantoII Analyzer).

With `CCC(C)[C@@H](ONC(=O)c1cc(C(F)(F)F)cc(C(F)(F)F)c1)C(=O)Nc1ccccc1` (stereo partly shown) [Amy-1-4] the “cell viability of HEY A8 CSCs (toxicity)” value (HEY A8 CSCs (HEY A8 SP); compound 5 μM, 48 h) was “significantly decreased the cell viability”.
For `O=C(NO[C@H](Cc1cc2ccccc2[nH]1)C(=O)Nc1ccccc1)c1cc(C(F)(F)F)cc(C(F)(F)F)c1` [Amy-1-8], the “cell viability of HEY A8 CSCs (toxicity)” value (HEY A8 CSCs (HEY A8 SP); compound 5 μM, 48 h) was “significantly decreased the cell viability”.
`O=C(NO[C@H](COCc1ccccc1)C(=O)NOc1ccccc1)c1cc(C(F)(F)F)cc(C(F)(F)F)c1` [FPM-1-187] was tested, and the “cell viability of HEY A8 CSCs (toxicity)” value (HEY A8 CSCs (HEY A8 SP); compound 5 μM, 48 h) was “significantly decreased the cell viability”.
`CC(=O)O[C@H]1C(=O)[C@@]2(C)[C@H]([C@H](OC(=O)c3ccccc3)[C@]3(O)C[C@H](OC(=O)[C@H](O)[C@@H](NC(=O)c4ccccc4)c4ccccc4)C(C)=C1C3(C)C)[C@]1(OC(C)=O)CO[C@@H]1C[C@@H]2O` [paclitaxel, reference compound] was tested, and the “population of CD133+ cells after treatment” value (HEY A8 cells) was 31.6% and the “tumor-seeding ability / tumor size of pretreated cells” value (HEY A8 CSCs [1]) was “resistant”.
In the case of `O=C(NO[C@H](COCc1ccccc1)C(=O)NO[C@@H](Cc1ccccc1)C(=O)Nc1ccccc1)c1cc(C(F)(F)F)cc(C(F)(F)F)c1` [sff-2-100], the “rank of toxicity among the 14 molecules on HEY A8 CSCs” value (HEY A8 CSCs (HEY A8 SP); 5 μM, 48 h) is reported as “highest toxicity”, the IC50 (HEY A8 CSCs (HEY A8 SP); Homo sapiens, HEY A8 spheres, 48 h incubation, read-out: IC50 Cancer Stem Cell HeyA8 SP) is reported as 2.8 ± 0.9 µM and the “cell viability of HEY A8 CSCs (toxicity)” value (HEY A8 CSCs (HEY A8 SP); compound 5 μM, 48 h) is reported as “significantly decreased the cell viability”. For the same molecule, the “selectivity towards ovarian CSCs over ovarian cancer cells and normal cells” value (HEY A8 CSCs (HEY A8 SP)) was “selectively induce the death of ovarian CSCs”, the IC50 (HEY A8 cancer cells; Homo sapiens, HEY A8, 48 h incubation) was 22.4 ± 1 µM and the IC50 (HEK293; Homo sapiens, HEK293) was 18.3 ± 0.6 µM. For the same molecule, the IC50 (MDCK; Canis lupus familiaris, MDCK) was 18 ± 0.7 µM and the IC50 (NIH3T3; Mus musculus, NIH3T3) was 2.8 ± 0.9 µM.
For `CC(C)C[C@@H](ONC(=O)c1cc(C(F)(F)F)cc(C(F)(F)F)c1)C(=O)Nc1ccccc1` [sff-2-124], the “cell viability of HEY A8 CSCs (toxicity)” value (HEY A8 CSCs (HEY A8 SP); compound 5 μM, 48 h) was “significantly decreased the cell viability”, the “selectivity towards ovarian CSCs over ovarian cancer cells and normal cells” value (HEY A8 CSCs (HEY A8 SP)) was “selectively induce the death of ovarian CSCs” and the IC50 (HEY A8 cancer cells; 48 h incubation) was 20.8 ± 0.9 µM. The IC50 (SKOV3 cancer cells) was 18.6 ± 5.1 µM, the IC50 (HEK293) was 67.2 ± 4.2 µM and the IC50 (MDCK) was 13.2 ± 0.9 µM. The IC50 (NIH3T3) was 15.1 ± 0.5 µM, the “toxicity to huh7 CD133+ population compared with CD133- cells” value [2] was “higher” and the “death of Huh 7 CD133+ cells” value ([2]; different doses) was “induce the death”. For the same molecule, the “death of Huh 7 CD133- cells” value (Huh 7 CD133- cells) was “induce the death”.
With `C[C@H](ONC(=O)c1cc(C(F)(F)F)cc(C(F)(F)F)c1)C(=O)Nc1ccccc1` [sff-3-85] the “cell viability of HEY A8 CSCs (toxicity)” value (HEY A8 CSCs (HEY A8 SP); compound 10 μM, 48 h) was “significantly decreased the cell viability”.
`O=C(NO[C@H](COCc1ccccc1)C(=O)Nc1ccc(F)cc1)c1cc(C(F)(F)F)cc(C(F)(F)F)c1` [sff-3-86] was tested, and the “cell viability of HEY A8 CSCs (toxicity)” value (HEY A8 CSCs (HEY A8 SP); compound 5 μM, 48 h) was “significantly decreased the cell viability” and the “Annexin V positive cells, CSCs” value (HEY A8 CSCs [3]) was 30.4%.
In the case of `CC(C)COC(=O)[C@@H](COCc1ccccc1)ONC(=O)c1cc(C(F)(F)F)cc(C(F)(F)F)c1` [sff-3-87], the “cell viability of HEY A8 CSCs (toxicity)” value (HEY A8 CSCs (HEY A8 SP); compound 5 μM, 48 h) is reported as “significantly decreased the cell viability”.
`O=C(NO[C@H](COCc1ccccc1)C(=O)Nc1ccccc1)c1ccc(C(F)(F)F)cc1` [sff-3-91] was tested, and the “cell viability of HEY A8 CSCs (toxicity)” value (HEY A8 CSCs (HEY A8 SP); compound 5 μM, 48 h) was “significantly decreased the cell viability”.
With `CC(OCc1ccccc1)[C@@H](ONC(=O)c1cc(C(F)(F)F)cc(C(F)(F)F)c1)C(=O)Nc1ccccc1` (stereo partly shown) [sff-3-98-2] the “cell viability of HEY A8 CSCs (toxicity)” value (HEY A8 CSCs (HEY A8 SP); compound 5 μM, 48 h) was “significantly decreased the cell viability”.
In the case of `CC(C)(C)OC[C@@H](ONC(=O)c1cc(C(F)(F)F)cc(C(F)(F)F)c1)C(=O)Nc1ccccc1` [sff-3-100], the “cell viability of HEY A8 CSCs (toxicity)” value (HEY A8 CSCs (HEY A8 SP); compound 5 μM, 48 h) is reported as “significantly decreased the cell viability”.
`CC(C)(C)Oc1ccc(C[C@@H](ONC(=O)c2cc(C(F)(F)F)cc(C(F)(F)F)c2)C(=O)Nc2ccccc2)cc1` [sff-3-101] was tested, and the “cell viability of HEY A8 CSCs (toxicity)” value (HEY A8 CSCs (HEY A8 SP); compound 5 μM, 48 h) was “significantly decreased the cell viability”.
